Reference: ChEMBL document CHEMBL5653631, “A Potent and Selective ULK1 Inhibitor Suppresses Autophagy and Sensitizes Cancer Cells to Nutrient Stress” (iScience, 2018)

Tests used:
[1] = biological target: G protein-coupled receptor kinase 6 (Homo sapiens) (UniProt P43250); experiment: Inhibition of human recombinant GPRK6 at 500 nM in presence of ATP by radiometric assay relative to control
[2] = biological target: T1, Dual specificity tyrosine-phosphorylation-regulated kinase 2 (Homo sapiens) (UniProt Q92630); experiment: Inhibition of human recombinant DYRK2 at 500 nM related to control ULK1
T1 sequence (whole entry): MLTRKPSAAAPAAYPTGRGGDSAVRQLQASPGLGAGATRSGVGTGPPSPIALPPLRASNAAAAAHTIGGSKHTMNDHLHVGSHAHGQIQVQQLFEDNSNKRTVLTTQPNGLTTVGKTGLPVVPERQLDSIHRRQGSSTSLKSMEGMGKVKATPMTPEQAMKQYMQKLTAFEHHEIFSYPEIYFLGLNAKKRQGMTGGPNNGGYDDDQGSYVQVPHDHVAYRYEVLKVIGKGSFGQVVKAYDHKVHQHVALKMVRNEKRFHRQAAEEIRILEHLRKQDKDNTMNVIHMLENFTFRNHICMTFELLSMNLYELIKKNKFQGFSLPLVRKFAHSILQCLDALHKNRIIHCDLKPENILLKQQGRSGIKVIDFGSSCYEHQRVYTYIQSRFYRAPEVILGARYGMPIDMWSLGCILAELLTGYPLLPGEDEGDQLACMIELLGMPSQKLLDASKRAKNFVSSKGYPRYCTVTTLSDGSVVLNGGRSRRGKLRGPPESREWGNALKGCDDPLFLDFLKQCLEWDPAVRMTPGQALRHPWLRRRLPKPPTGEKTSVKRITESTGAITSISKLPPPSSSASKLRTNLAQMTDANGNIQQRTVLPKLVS

[3] = biological target: Mitogen-activated protein kinase 14 (Homo sapiens) (UniProt Q16539); experiment: Inhibition of human recombinant p38alpha at 500 nM related to control ULK1
[4] = biological target: Serine/threonine-protein kinase tousled-like 2 (Homo sapiens) (UniProt Q86UE8); experiment: Inhibition of human recombinant TLK2 at 15 nM in presence of ATP by radiometric assay relative to control
[5] = biological target: T2, Cytoplasmic tyrosine-protein kinase BMX (Homo sapiens) (UniProt P51813); experiment: Inhibition of human recombinant BMX at 15 nM related to control ULK1
T2 sequence (whole entry): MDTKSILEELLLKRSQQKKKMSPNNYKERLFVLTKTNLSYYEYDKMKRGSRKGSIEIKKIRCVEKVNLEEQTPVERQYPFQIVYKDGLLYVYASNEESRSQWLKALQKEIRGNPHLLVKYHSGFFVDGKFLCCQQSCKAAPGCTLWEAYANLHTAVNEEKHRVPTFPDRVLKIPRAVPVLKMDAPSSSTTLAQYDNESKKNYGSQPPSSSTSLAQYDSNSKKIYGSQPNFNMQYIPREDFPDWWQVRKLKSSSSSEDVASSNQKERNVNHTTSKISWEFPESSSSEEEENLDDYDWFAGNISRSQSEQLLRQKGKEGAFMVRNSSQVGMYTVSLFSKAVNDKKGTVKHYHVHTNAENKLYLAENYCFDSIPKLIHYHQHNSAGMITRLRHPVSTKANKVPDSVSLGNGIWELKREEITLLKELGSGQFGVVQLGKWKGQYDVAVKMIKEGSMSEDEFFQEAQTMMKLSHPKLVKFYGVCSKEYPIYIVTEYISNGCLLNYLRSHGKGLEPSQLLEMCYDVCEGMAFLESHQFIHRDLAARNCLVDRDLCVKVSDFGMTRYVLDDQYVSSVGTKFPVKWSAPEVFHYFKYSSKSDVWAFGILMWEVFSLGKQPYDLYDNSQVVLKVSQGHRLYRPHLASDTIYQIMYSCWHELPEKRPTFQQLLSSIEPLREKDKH

[6] = biological target: Serine/threonine-protein kinase PRP4 homolog (Homo sapiens) (UniProt Q13523); experiment: Inhibition of human recombinant PRP4 at 15 nM related to control ULK1
[7] = biological target: T3, Mitogen-activated protein kinase kinase kinase 5 (Homo sapiens) (UniProt Q99683); experiment: Inhibition of human recombinant MAP3K5 at 40 nM in presence of ATP by radiometric assay relative to control
T3 sequence (whole entry): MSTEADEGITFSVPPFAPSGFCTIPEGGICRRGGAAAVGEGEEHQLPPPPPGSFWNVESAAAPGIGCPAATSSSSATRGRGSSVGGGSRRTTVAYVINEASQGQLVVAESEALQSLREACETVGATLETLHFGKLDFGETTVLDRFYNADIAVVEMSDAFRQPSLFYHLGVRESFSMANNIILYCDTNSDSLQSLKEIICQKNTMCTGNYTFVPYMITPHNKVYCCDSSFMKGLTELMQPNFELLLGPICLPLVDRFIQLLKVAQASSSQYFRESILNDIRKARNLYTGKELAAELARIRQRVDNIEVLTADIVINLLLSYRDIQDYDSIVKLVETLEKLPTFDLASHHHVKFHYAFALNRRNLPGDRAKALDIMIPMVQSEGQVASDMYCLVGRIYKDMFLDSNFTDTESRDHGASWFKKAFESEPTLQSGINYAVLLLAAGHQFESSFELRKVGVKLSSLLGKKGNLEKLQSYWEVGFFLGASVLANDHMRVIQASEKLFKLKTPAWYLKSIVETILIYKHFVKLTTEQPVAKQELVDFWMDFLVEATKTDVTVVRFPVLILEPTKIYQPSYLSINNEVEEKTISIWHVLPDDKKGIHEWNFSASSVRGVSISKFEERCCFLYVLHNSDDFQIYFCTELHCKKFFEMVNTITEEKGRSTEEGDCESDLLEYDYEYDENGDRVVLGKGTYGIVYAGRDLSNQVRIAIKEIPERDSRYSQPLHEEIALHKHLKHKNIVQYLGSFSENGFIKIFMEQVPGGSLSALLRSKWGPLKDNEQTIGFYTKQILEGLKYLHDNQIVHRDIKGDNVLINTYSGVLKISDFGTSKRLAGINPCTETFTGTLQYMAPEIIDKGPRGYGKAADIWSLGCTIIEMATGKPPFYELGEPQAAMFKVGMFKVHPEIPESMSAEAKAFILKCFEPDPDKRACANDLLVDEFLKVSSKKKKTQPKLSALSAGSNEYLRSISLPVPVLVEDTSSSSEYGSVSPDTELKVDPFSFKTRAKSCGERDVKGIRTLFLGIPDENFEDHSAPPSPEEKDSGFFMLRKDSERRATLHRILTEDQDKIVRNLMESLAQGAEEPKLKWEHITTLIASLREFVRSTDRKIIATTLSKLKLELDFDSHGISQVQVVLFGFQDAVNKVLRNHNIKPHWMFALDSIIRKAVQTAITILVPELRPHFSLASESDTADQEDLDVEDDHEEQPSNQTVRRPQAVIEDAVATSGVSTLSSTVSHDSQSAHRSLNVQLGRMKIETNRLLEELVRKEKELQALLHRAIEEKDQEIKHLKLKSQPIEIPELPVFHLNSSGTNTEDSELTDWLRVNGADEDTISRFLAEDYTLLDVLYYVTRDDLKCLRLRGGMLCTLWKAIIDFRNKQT

Mitogen-activated protein kinase 14 (Homo sapiens), sequence (Q16539 whole entry): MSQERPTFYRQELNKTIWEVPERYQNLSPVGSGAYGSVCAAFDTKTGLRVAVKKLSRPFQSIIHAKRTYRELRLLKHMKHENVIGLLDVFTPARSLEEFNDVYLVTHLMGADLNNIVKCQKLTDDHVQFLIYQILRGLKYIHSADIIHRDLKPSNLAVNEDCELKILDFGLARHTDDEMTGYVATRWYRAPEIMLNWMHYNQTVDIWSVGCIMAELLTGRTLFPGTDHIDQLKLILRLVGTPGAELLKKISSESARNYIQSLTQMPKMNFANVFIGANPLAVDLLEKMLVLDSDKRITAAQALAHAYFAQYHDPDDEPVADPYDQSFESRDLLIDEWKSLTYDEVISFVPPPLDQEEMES
G protein-coupled receptor kinase 6 (Homo sapiens), sequence (P43250 whole entry, looked up): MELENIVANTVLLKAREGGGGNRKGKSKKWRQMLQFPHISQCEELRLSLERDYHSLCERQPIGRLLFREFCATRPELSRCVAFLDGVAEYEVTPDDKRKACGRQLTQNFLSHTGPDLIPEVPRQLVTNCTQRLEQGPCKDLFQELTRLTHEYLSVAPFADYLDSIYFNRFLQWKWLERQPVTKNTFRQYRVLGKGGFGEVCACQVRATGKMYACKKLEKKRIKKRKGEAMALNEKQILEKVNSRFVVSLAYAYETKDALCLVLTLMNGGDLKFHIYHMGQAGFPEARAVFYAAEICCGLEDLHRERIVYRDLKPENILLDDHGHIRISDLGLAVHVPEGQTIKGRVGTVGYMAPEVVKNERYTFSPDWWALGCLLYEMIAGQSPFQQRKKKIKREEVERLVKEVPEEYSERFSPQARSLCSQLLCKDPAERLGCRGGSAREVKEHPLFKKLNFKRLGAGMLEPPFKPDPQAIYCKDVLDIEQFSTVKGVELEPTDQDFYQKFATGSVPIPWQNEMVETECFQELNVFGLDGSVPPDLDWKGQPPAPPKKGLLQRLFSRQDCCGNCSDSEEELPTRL
Serine/threonine-protein kinase tousled-like 2 (Homo sapiens), sequence (Q86UE8 whole entry, looked up): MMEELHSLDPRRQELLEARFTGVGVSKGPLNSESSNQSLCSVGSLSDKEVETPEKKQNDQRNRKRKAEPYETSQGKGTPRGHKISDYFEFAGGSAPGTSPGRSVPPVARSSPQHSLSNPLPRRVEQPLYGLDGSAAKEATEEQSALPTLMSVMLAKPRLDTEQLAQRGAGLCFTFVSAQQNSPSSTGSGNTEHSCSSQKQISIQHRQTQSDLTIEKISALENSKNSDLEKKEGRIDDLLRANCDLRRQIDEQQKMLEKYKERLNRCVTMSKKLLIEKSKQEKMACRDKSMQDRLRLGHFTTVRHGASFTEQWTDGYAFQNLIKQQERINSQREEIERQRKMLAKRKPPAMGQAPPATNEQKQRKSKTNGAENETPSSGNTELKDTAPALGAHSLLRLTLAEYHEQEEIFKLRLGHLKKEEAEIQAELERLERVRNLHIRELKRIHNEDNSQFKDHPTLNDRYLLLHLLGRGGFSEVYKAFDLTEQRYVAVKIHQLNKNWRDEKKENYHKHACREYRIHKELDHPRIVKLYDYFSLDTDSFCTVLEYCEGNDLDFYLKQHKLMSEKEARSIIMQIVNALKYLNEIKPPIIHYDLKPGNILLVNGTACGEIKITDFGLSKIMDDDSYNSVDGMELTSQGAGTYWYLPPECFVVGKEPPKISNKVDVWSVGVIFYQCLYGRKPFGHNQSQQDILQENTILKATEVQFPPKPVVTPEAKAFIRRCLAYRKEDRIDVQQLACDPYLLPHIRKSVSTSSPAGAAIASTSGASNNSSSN
Serine/threonine-protein kinase PRP4 homolog (Homo sapiens), sequence (Q13523 whole entry): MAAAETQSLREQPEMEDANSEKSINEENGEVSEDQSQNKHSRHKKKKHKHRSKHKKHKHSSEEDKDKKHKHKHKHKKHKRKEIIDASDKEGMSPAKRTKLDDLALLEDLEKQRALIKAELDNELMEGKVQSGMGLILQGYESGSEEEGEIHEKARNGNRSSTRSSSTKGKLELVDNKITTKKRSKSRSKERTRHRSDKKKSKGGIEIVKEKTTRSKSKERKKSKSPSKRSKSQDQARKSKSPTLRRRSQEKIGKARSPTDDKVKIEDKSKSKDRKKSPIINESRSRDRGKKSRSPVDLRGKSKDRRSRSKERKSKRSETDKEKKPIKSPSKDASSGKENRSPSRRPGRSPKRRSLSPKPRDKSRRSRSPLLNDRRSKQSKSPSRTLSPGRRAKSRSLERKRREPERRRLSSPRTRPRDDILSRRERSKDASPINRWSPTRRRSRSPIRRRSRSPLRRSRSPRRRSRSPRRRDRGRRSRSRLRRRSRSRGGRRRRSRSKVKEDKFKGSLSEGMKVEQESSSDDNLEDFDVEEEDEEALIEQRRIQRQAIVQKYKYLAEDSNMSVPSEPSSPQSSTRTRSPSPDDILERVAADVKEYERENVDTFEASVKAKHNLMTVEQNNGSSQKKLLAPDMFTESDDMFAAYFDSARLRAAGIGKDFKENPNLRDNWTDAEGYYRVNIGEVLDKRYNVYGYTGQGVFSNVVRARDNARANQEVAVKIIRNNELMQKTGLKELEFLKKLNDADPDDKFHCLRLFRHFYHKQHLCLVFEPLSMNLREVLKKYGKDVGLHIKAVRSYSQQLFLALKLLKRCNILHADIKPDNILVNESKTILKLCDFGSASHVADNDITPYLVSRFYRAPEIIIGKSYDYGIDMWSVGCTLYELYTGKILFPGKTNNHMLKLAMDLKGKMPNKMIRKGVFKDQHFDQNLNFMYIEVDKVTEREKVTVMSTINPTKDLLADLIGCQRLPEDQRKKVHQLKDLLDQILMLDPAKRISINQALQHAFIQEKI

**Q.** What does the source list for `CNC(=O)c1ccccc1Oc1nc(Nc2cc(OC)c(OC)c(OC)c2)ncc1Br`?
**A.** inhibition [1]: 12%; fold change (FC) [2]: 0; fold change (FC) [3]: 0.07

**Q.** `CC(C)[C@H](NC(=O)c1cc(-c2cnn3cc(-c4ccc(OCCN5CCCCC5)cc4)cnc23)cs1)C(F)(F)F` was tested. Which inhibition [4] did it give?
**A.** Its inhibition is 3%.

**Q.** What about the fold change (FC) [5] of the same molecule?
**A.** The fold change (FC) was 0.07.

**Q.** And the fold change (FC) [6]?
**A.** Its fold change (FC) is 0.07.

**Q.** How did the inhibition [7] turn out when `O=C(N[C@@H](C1CC1)C(F)(F)F)c1cc(-c2cnn3cc(-c4ccc(F)cc4)cnc23)cs1` was run?
**A.** Its inhibition is 0%.
